Experimental data published in US20220280594A1, “APPLICATION OF POLYPEPTIDE OR DERIVATIVE THEREOF” (CHENGDU HUITAI BIOMEDICINE CO., LTD., priority 2019, published 2022).
Ends that are not written are not given here. PEG = not defined here

Legend:
[1] = tested on: human melanoma cells (A375); assay: scratch assay, migration of A375 cells; assay type: cell-based; settings: A375, 10 μM, 48 hours; control group 44.03 ± 6.21
Description: (§1) In the scratch assay, the cell migration rate was negatively correlated with the inhibitory effect of the drug component on tumor cell migration ability. The cell migration inhibition experiment was described as follows: tumor cells were cultured in vitro, cells in logarithmic growth phase were collected and seeded evenly in a 24-well plate at a density of 1-2×10^5 cells/well; the cells were cultured in a cell incubator until a monolayer was formed; a scratch tool was used to make a “-” (straight) scratch on the monolayer of cells; the cells were washed 1-3 times with PBS, and a medium (with 2% fetal bovine serum) containing specific test components was added to the culture. Experimental grouping: PBS control group; polypeptide or derivative thereof treatment group (N1-N54), 10 μM. Three independent parallel wells were set up in each group, and the cells were cultured continuously in a cell incubator for 48 hours. […] At least 3 representative images for each well were taken. ImageJ software was used to count the migration distance of the cells, and the cell migration rate was calculated as: cell migration rate (%)=(width of original scratch−width of current scratch)/width of original scratch×100.
This example was a scratch assay to evaluate the inhibitory effect of the polypeptide or derivative thereof (N1-N54) on the migration ability of human melanoma cells (A375). The experimental method was as described in Example 2.

[2] = tested on: human pharyngeal squamous-cell carcinoma cells (Fadu); assay: scratch assay, migration of Fadu cells; assay type: cell-based; settings: 10 μM, 48 hours, control group 28.76 ± 4.08
Description: as §1
This example was a scratch assay to evaluate the inhibitory effect of the polypeptide or derivative thereof (N1-N54) on the migration ability of human pharyngeal squamous-cell carcinoma cells (Fadu). The experimental method was as described in Example 2.

[3] = tested on: human lung cancer cells (A549) subcutaneous xenograft; assay: lung cancer subcutaneous xenograft animal model, intratumoral injection; assay type: in vivo, mice (BALB/c-nu/nu); settings: intratumoral 5 mg/kg once every other day, 20 days; for Weight of tumor (g) (mean ± SD): control 1.92 ± 0.13; for Volume of tumor (mm^3) (mean ± SD): control 1700.16 ± 305.72
Description: Experimental animals: 4-6 weeks old female immunodeficiency mice (BALB/c-nu/nu, Beijing Vital River Laboratory Animal Technology Co., Ltd.).
Subcutaneous xenograft animal model. The number of cells inoculated subcutaneously vin mice was about 2×10^6/200 μL. When the volume of the subcutaneous tumor was greater than 100 mm^3, the mice were randomly divided into groups and subjected to treatment. When the mass volume of the tumors in model control group reached 2000 mm^3 or the animal dies, the treatment ended. The animals were dissected, the tumors were taken out, and the weight and volume of the tumors were measured. During the period of the entire experiment, the mice were observed and the body weight was measured every other day.
The method used for the drug efficacy test in the animal model of the subcutaneous xenograft derived from lung cancer cells was as described in Example 5. The tumor cells were human lung cancer cells (A549), and the route of administration was intratumoral injection. There were two groups: the model control group and the polypeptide or its derivative treatment group (N1-N12). The drug dosage of the treatment group was 5 mg/kg, once every other day and the treatment time was 10 days.
The procedure of the efficacy test in this example, route and dosage of administration were the same as in Example 9. The peptides used in the experiment were N13-N32. The treatment time was 20 days.

Row | Substance | Migration rate (%) (mean ± SD, P) [1] | Migration rate (%) (mean ± SD, P) [2] | Weight of tumor (g) (mean ± SD) [3] | Volume of tumor (mm^3) (mean ± SD) [3]
1 | N38: SEQ ID NO: 1 with one amino acid added at each terminal and PEG modification at the carboxyl terminal (FYRVRFLAKENVTQDAEDNC-{PEG}; reading uncertain) | 15.57 ± 3.65,*** % | 18.18 ± 3.61,* % | – | –
2 | N20: SEQ ID NO: 1 with addition of one amino acid at the amino terminal and deletion of position 18 (RYRVRFLAKENVTQDAED) | 14.61 ± 3.12,*** % | 15.21 ± 4.90,* % | 0.89 ± 0.22 g | 1037.56 ± 256.6 mm^3
3 | N40: SEQ ID NO: 1 with deletion of positions 1-5 and 15-18, PEG at the amino terminal, two amino acids added at the carboxyl terminal ({PEG}-LAKENVTQDRC; reading uncertain) | 6.47 ± 1.39,*** % | 10.25 ± 2.76,** % | – | –
4 | N41: SEQ ID NO: 1 with addition of two amino acids at the amino terminal, deletion of position 18, PEG at the carboxyl terminal (FRYRVRFLAKENVTQDAED-{PEG}; reading uncertain) | 10.01 ± 2.07,*** % | 12.00 ± 4.73,** % | – | –
5 | N51: SEQ ID NO: 1 with A15R, one amino acid added at each terminal, PEG modification at the amino terminal ({PEG}-FYRVRFLAKENVTQDREDNC; reading uncertain) | 17.96 ± 3.20,** % | 8.71 ± 1.79,*** % | – | –
6 | N18: SEQ ID NO: 1 with addition of one amino acid at the amino terminal and one at the carboxyl terminal (FYRVRFLAKENVTQDAEDNC) | 12.67 ± 1.33,*** % | 6.29 ± 2.62,*** % | 0.75 ± 0.26 g | 969.37 ± 243.04 mm^3
7 | N35: SEQ ID NO: 1 with A15R, addition of one amino acid and PEG modification at the carboxyl terminal (YRVRFLAKENVTQDREDNC-{PEG}; reading uncertain) | 19.51 ± 2.28,** % | 8.71 ± 1.79,*** % | – | –
8 | N30: SEQ ID NO: 1 with deletion of positions 1-5 and 15-18 and PEG modification at the carboxyl terminal (LAKENVTQD-{PEG}; reading uncertain) | 6.96 ± 2.18,*** % | 13.85 ± 3.59,** % | 0.9 ± 0.22 g | 913.9 ± 204.07 mm^3
9 | N16: SEQ ID NO: 1 with substitution A7R and addition of one amino acid at the carboxyl terminus (YRVRFLRKENVTQDAEDNC) | 11.28 ± 3.14,*** % | 5.51 ± 1.32,*** % | 0.83 ± 0.27 g | 897.27 ± 176.16 mm^3
10 | N52: SEQ ID NO: 1 with N18R, addition of two amino acids and PEG modification at the carboxyl terminal (YRVRFLAKENVTQDAEDRCT-{PEG}; reading uncertain) | 19.57 ± 2.21,** % | 7.76 ± 2.08,*** % | – | –
11 | N48: SEQ ID NO: 1 with A7R, deletion of position 11 and position 18, PEG modification at the carboxyl terminal (YRVRFLRKENTQDAED-{PEG}; reading uncertain) | 9.09 ± 2.23,*** % | 8.78 ± 4.34,*** % | – | –
12 | N37: SEQ ID NO: 1 with addition of two amino acids to the carboxyl terminal and PEG modification at the amino terminal ({PEG}-YRVRFLAKENVTQDAEDNCT; reading uncertain) | 14.48 ± 2.51,*** % | 15.89 ± 3.88,* % | – | –
13 | N34: SEQ ID NO: 1 with A15R, addition of one amino acid at the carboxyl terminal, PEG modification at the amino terminal ({PEG}-YRVRFLAKENVTQDREDNC; reading uncertain) | 15.11 ± 2.01,*** % | 7.38 ± 2.85,*** % | – | –
14 | N47: SEQ ID NO: 1 with N18R, deletion of positions 1-2, one amino acid added and PEG at the carboxyl terminal (VRFLAKENVTQDAEDRC-{PEG}; reading uncertain) | 8.82 ± 2.49,*** % | 10.27 ± 4.61,*** % | – | –
15 | N54: SEQ ID NO: 1 with A7R, addition of two amino acids and PEG modification at the carboxyl terminal (YRVRFLRKENVTQDAEDNTC-{PEG}; reading uncertain) | 16.91 ± 3.21,** % | 15.88 ± 5.38,* % | – | –
16 | N50: SEQ ID NO: 1 with N18R, addition of 2 amino acid at the carboxyl terminal, PEG modification at the amino terminal ({PEG}-YRVRFLAKENVTQDAEDRCT; reading uncertain) | 15.97 ± 2.33,** % | 5.44 ± 1.44,*** % | – | –
17 | N43: SEQ ID NO: 1 with addition of one amino acid at the amino terminal, deletion of position 18, PEG at the carboxyl terminal (RYRVRFLAKENVTQDAED-{PEG}; reading uncertain) | 11.22 ± 1.74,*** % | 10.04 ± 2.50,** % | – | –
18 | N53: SEQ ID NO: 1 with A15R, one amino acid added at each terminal, PEG modification at the carboxyl terminal (FYRVRFLAKENVTQDREDNC-{PEG}; reading uncertain) | 18.83 ± 4.71,** % | 13.8 ± 3.05,** % | – | –
19 | N33: SEQ ID NO: 1 with deletion of positions 1-5, addition of one amino acid and PEG modification at the carboxyl terminal (LAKENVTQDAEDNC-{PEG}; reading uncertain) | 9.98 ± 3.11,*** % | 10.28 ± 2.06,** % | – | –
20 | N39: SEQ ID NO: 1 with addition of two amino acids and PEG modification at the carboxyl terminal (YRVRFLAKENVTQDAEDNTC-{PEG}; reading uncertain) | 9.21 ± 3.20,*** % | 18.48 ± 5.74,* % | – | –
21 | N45: SEQ ID NO: 1 with V11R, deletion of positions 1-5 and 15-18, PEG modification at the carboxyl terminal (LAKENRTQD-{PEG}; reading uncertain) | 18.79 ± 2.28,** % | 9.34 ± 2.86,*** % | – | –
22 | N49: SEQ ID NO: 1 with A7R, deletion of positions 1-2 and position 18, PEG modification at the carboxyl terminal (VRFLRKENVTQDAED-{PEG}; reading uncertain) | 6.51 ± 1.53,*** % | 6.29 ± 2.62,*** % | – | –
23 | N42: SEQ ID NO: 1 with deletion of positions 1-5 and 15-18, PEG at the amino terminal, one amino acid added at the carboxyl terminal ({PEG}-LAKENVTQDR; reading uncertain) | 8.92 ± 2.25,*** % | 18.63 ± 2.79,* % | – | –
